Data published in patent US20090155767A1, “Methods for a predictive diagnostic test for tamoxifen” (priority 2007, published 2009).
Like-named read-outs stand apart in the source and are kept apart here.

How the values were obtained:
[1] = system: stage II invasive breast cancer (ER+ subset); assay: Randomized clinical trial of two years of adjuvant tamoxifen vs no treatment (Swedish SBII:2a); recurrence-free survival by biomarker subgroup; format: in vivo, human; details: for HR RFS: ER+
Excerpt: From 1986 to 1991, 564 patients enrolled in a a randomized clinical trial for adjuvant tamoxifen treatment in early breast cancer (Swedish SBII:2a)(15). Criteria for enrollment included premenopausal status or age less than 50 years, with stage II invasive breast cancer. Patients were randomized to receive two years of tamoxifen (n=276) or no treatment (control, n=288), and were followed for disease-free and overall survival, with a median follow-up of 13.9 years. A detailed description of the trial and results has previously been published (15,16).
For analysis of tamoxifen response, only the ER+ subset of patients were included (16). By IHC, a cut-off value of at least 10% nuclear immunoreactivity was used to classify patients as ER-positive.
The statistical calculations were performed using SPSS Version 13.0 (SPSS, Chicago, Ill.) and Stata Version 9.2 (StataCorp, College Station, Tex.). Pearson's correlation coefficient (R) was used to assess the correlation between log AQUA-EGFR scores from redundant tumor cores and Spearman's Rho to assess the correlation between AQUA-EGFR score and other variables. Recurrence-free survival (RFS) was chosen as endpoint in the present study. RFS included breast cancer specific death, distant, regional and local recurrences and all analyses were performed with the intention to treat rule. The AQUA-EGFR score was dichotomized at the median in order to avoid bias problems associated with cut-off optimization. Kaplan-Meier plots were used to illustrate the survival in high and low EGFR, respectively, and the log rank test to test for equality of survival curves. Hazard ratios were estimated using Cox regression. Proportional hazards assumptions were checked using Schoenfeld's test. The null hypothesis of equal treatment effects in high and low EGFR were evaluated using a Cox model with a term for the interaction between EGFR class and treatment. Cox models with continuous AQUA-EGFR score were also fitted. The original score and a logarithmic transformation of the score were evaluated. […] All p-values corresponded to two-sided tests and values less than 0.05 were considered significant.

[2] = system: stage II invasive breast cancer (ER+ subset); details: Cox univariate, tamoxifen vs control, cited from earlier work

With `CC/C(=C(\c1ccccc1)c1ccc(OCCN(C)C)cc1)c1ccccc1` [Tamoxifen] as the compound, how does the “HR RFS” value ([1]; Cox multivariate, Tamoxifen Treatment (+/-), n = 324 (available data in 186 patients)) read?
The value was 0.571.

What about the “HR RFS” value ([1]; Cox univariate, tamoxifen vs control, EGFR-AQUA High, n = 73) of the same compound?
Its value is 1.14.

What about the “HR RFS” value ([1]; Cox univariate, tamoxifen vs control, EGFR-AQUA Low, n = 113) of the same compound?
The value was 0.43.

And the “HR RFS” value ([1]; Cox univariate, tamoxifen vs control, EGFR-IHC High, n = 27)?
The value was 0.73.

And the “HR RFS” value ([1]; Cox univariate, tamoxifen vs control, EGFR-IHC Low, n = 232)?
The value was 0.57.

And the “HR RFS” value ([1]; Cox univariate, tamoxifen vs control, HER2-AQUA High, N = 10)?
The value was 0.28.

What about the “HR RFS” value ([1]; Cox univariate, tamoxifen vs control, HER2-AQUA Low, N = 231) of the same compound?
The value was 0.64.

And the “Effect of two years of adjuvant tamoxifen on RFS (log rank, Kaplan-Meier)” value ([1]; ER+ patients with low EGFR expression (AQUA), n=113, p=0.01)?
Its value is “significant effect”.

What about the “Effect of two years of adjuvant tamoxifen on RFS (log rank, Kaplan-Meier)” value ([1]; ER+ patients, EGFR high group (AQUA), n=73, p=0.69) of the same compound?
The value was “no treatment effect”.

And the “10-year RFS” value ([1]; ER+ tamoxifen treated patients with high EGFR expression (AQUA))?
Its value is 52%.

What about the “10-year RFS” value ([1]; ER+ tamoxifen treated patients, EGFR low group (AQUA)) of the same compound?
Its value is 78%.

What about the “Association of high EGFR expression with outcome in tamoxifen-treated patients” value ([1]; ER+ tamoxifen-treated patients, high vs low EGFR (AQUA), Log-Rank p=0.0411) of the same compound?
The value was “shorter time to recurrence and breast cancer death”.

And the “HR RFS” value ([2]; HER2 IHC 0-2+ (Herceptest), N = 252)?
The value was 0.64.

And the “HR RFS” value ([2]; HER2 IHC 3+ (Herceptest), N = 23)?
The value was 0.67.
